Measured values as given in ChEMBL document CHEMBL3792317, “Novel tetrazoloquinoline-rhodanine conjugates: Highly efficient synthesis and biological evaluation” (Bioorg Med Chem Lett, 2016).
Values after ≈ are worked out from the molar mass of the structure shown.

What was measured:
[1] = tested on: Mycobacterium tuberculosis; assay: Antitubercular activity against Mycobacterium tuberculosis H37Ra ATCC 25177 incubated for 40 mins by XTT Reduction Menadione Assay; assay type: functional; conditions: H37Ra ATCC 25177, 40 min
[2] = Antitubercular activity against Mycobacterium bovis BCG ATCC 35743 incubated for 40 mins by XTT Reduction Menadione Assay; assay type: functional, Mycobacterium bovis BCG str. ATCC 35743; conditions: Mycobacterium tuberculosis variant bovis BCG, ATCC 35743, 40 min
Candida albicans = assay: Antifungal activity against Candida albicans NCIM 3471 after 48 hrs by agar cup plate method; assay type: functional; conditions: NCIM 3471, 48 h
Fusarium oxysporum = assay: Antifungal activity against Fusarium oxysporum NCIM 1332 after 48 hrs by agar cup plate method; assay type: functional; conditions: NCIM 1332, 48 h
Aspergillus flavus = assay: Antifungal activity against Aspergillus flavus NCIM 539 after 48 hrs by agar cup plate method; assay type: functional; conditions: NCIM 539, 48 h
Aspergillus niger = assay: Antifungal activity against Aspergillus niger NCIM 1196 after 48 hrs by agar cup plate method; assay type: functional; conditions: NCIM 1196, 48 h
Cryptococcus neoformans = assay: Antifungal activity against Cryptococcus neoformans NCIM 576 after 48 hrs by agar cup plate method; assay type: functional; conditions: NCIM 576, 48 h
[3] = tested on: Mycobacterium tuberculosis; assay: Antitubercular activity against Mycobacterium tuberculosis H37Ra ATCC 25177 at 30 ug/ml incubated for 40 mins by XTT Reduction Menadione Assay; assay type: functional; conditions: H37Ra ATCC 25177, 40 min, read-out: GI
[4] = tested on: Mycobacterium tuberculosis; assay: Antitubercular activity against Mycobacterium tuberculosis H37Ra ATCC 25177 at 10 ug/ml incubated for 40 mins by XTT Reduction Menadione Assay; assay type: functional; conditions: H37Ra ATCC 25177, 40 min, read-out: GI
[5] = tested on: Mycobacterium tuberculosis; assay: Antitubercular activity against Mycobacterium tuberculosis H37Ra ATCC 25177 at 3 ug/ml incubated for 40 mins by XTT Reduction Menadione Assay; assay type: functional; conditions: H37Ra ATCC 25177, 40 min, read-out: GI
[6] = tested on: Mycobacterium bovis BCG str. ATCC 35743; assay: Antitubercular activity against dormant Mycobacterium bovis BCG ATCC 35743 at 30 ug/ml incubated for 40 mins by XTT Reduction Menadione Assay; assay type: functional
[7] = tested on: Mycobacterium bovis BCG str. ATCC 35743; assay: Antitubercular activity against dormant Mycobacterium bovis BCG ATCC 35743 at 10 ug/ml incubated for 40 mins by XTT Reduction Menadione Assay; assay type: functional
[8] = tested on: Mycobacterium bovis BCG str. ATCC 35743; assay: Antitubercular activity against dormant Mycobacterium bovis BCG ATCC 35743 at 3 ug/ml incubated for 40 mins by XTT Reduction Menadione Assay; assay type: functional
[9] = tested on: Mycobacterium tuberculosis; assay: Antitubercular activity against dormant Mycobacterium tuberculosis H37Ra ATCC 25177 incubated for 40 mins by XTT Reduction Menadione Assay; assay type: functional; conditions: H37Ra ATCC 25177, 40 min
[10] = tested on: Mycobacterium tuberculosis; assay: Antitubercular activity against active Mycobacterium tuberculosis H37Ra ATCC 25177 incubated for 40 mins by XTT Reduction Menadione Assay; assay type: functional; conditions: H37Ra ATCC 25177, 40 min
[11] = tested on: Mycobacterium bovis BCG str. ATCC 35743; assay: Antitubercular activity against dormant Mycobacterium bovis BCG ATCC 35743 incubated for 40 mins by XTT Reduction Menadione Assay; assay type: functional
[12] = (§1) Cytotoxicity against human HeLa cells after 48 hrs by MTT assay; assay type: cell-based; conditions: HeLa cells
HeLa = assay: as §1; assay type: cell-based; conditions: hela, 48 h
[13] = Cytotoxicity against human PANC1 cells after 48 hrs by MTT assay; assay type: cell-based, PANC-1; conditions: for GI50 at 48 h: PANC1 cells; for GI90: panc-1, 48 h
[14] = (§2) Cytotoxicity against human A549 cells after 48 hrs by MTT assay; assay type: cell-based; conditions: A549 cells
A549 = assay: as §2; assay type: cell-based; conditions: a549, 48 h
[15] = Cytotoxicity against human THP1 cells after 48 hrs by MTT assay; assay type: cell-based, THP-1; conditions: for GI50 at 48 h: THP1 cells; for GI90: thp-1, 48 h
Escherichia coli = assay: Antibacterial activity against Escherichia coli after 18 hrs by broth dilution method; assay type: functional
Pseudomonas fluorescens = assay: Antibacterial activity against Pseudomonas fluorescens after 18 hrs by broth dilution method; assay type: functional
Staphylococcus aureus = assay: Antibacterial activity against Staphylococcus aureus after 18 hrs by broth dilution method; assay type: functional
Bacillus subtilis = assay: Antibacterial activity against Bacillus subtilis after 18 hrs by broth dilution method; assay type: functional

For `Cc1ccc2cc(/C=C3\SC(=S)N(CC(=O)O)C3=O)c3nnnn3c2c1`, the MIC [1] was 159 mg/L (≈ 413 µM), the MIC [2] was 24.2 mg/L (≈ 62.7 µM) and the MIC (Candida albicans) was 75 mg/L (≈ 195 µM). The MIC (Fusarium oxysporum) was 100 mg/L (≈ 259 µM), the MIC (Aspergillus flavus) was 50 mg/L (≈ 130 µM) and the MIC (Aspergillus niger) was 150 mg/L (≈ 389 µM). The MIC (Cryptococcus neoformans) was 150 mg/L (≈ 389 µM), the inhibition of growth at 30 µg/mL [3] was 65% and the inhibition of growth at 10 µg/mL [4] was 49.2%. The inhibition of growth at 3 µg/mL [5] was 31.7%, the growth inhibition (GI) [6] was 50.6% and the growth inhibition (GI) [7] was 19.2%. For the same compound, the growth inhibition (GI) [8] was -4.5%, the IC90 [9] was 159 mg/L (≈ 413 µM) and the IC90 [10] was over 250 mg/L. It also gave an IC90 [11] of 24.2 mg/L (≈ 62.7 µM), a GI50 at 48 h [12] of over 100 mg/L and a GI90 (HeLa) of over 100 mg/L. The GI50 at 48 h [13] was over 100 mg/L, the GI90 [13] was over 100 mg/L and the GI50 at 48 h [14] was over 100 mg/L. The GI90 (A549) was over 100 mg/L, the GI50 at 48 h [15] was over 100 mg/L and the GI90 [15] was over 100 mg/L.
Compound `Cc1cccc2cc(/C=C3\SC(=S)NC3=O)c3nnnn3c12` has an MIC [1] of 148 mg/L (≈ 453 µM), an MIC [2] of over 250 mg/L and an MIC (Candida albicans) of 25 mg/L (≈ 76.4 µM). It also gave an MIC (Fusarium oxysporum) of 100 mg/L (≈ 305 µM), an MIC (Aspergillus flavus) of 50 mg/L (≈ 153 µM) and an MIC (Aspergillus niger) of 25 mg/L (≈ 76.4 µM). The MIC (Cryptococcus neoformans) was 75 mg/L (≈ 229 µM), the inhibition of growth at 30 µg/mL [3] was 40.3% and the inhibition of growth at 10 µg/mL [4] was 16.7%. For the same compound, the inhibition of growth at 3 µg/mL [5] was -9.62%, the growth inhibition (GI) [6] was 82.4% and the growth inhibition (GI) [7] was 63.3%. The growth inhibition (GI) [8] was 64%, the IC90 [9] was 148 mg/L (≈ 453 µM) and the IC90 [10] was over 250 mg/L. It also gave an MIC (Escherichia coli) of 173 mg/L (≈ 529 µM), an MIC (Pseudomonas fluorescens) of 148 mg/L (≈ 451 µM) and an MIC (Staphylococcus aureus) of 127 mg/L (≈ 388 µM). It also gave an MIC (Bacillus subtilis) of 88.8 mg/L (≈ 271 µM), a GI50 at 48 h [12] of over 100 mg/L and a GI90 (HeLa) of over 100 mg/L. The GI50 at 48 h [13] was over 100 mg/L, the GI90 [13] was over 100 mg/L and the GI50 at 48 h [14] was over 100 mg/L. The GI90 (A549) was over 100 mg/L, the GI50 at 48 h [15] was over 100 mg/L and the GI90 [15] was over 100 mg/L.
`Cc1ccc2c(c1)cc(/C=C1\SC(=S)NC1=O)c1nnnn12` showed an MIC [1] of over 250 mg/L, an MIC [2] of over 250 mg/L and an MIC (Candida albicans) of 150 mg/L (≈ 458 µM). It also gave an MIC (Fusarium oxysporum) of 25 mg/L (≈ 76.4 µM), an MIC (Aspergillus flavus) of 100 mg/L (≈ 305 µM) and an MIC (Aspergillus niger) of 25 mg/L (≈ 76.4 µM). For the same compound, the MIC (Cryptococcus neoformans) was 25 mg/L (≈ 76.4 µM), the inhibition of growth at 30 µg/mL [3] was 10.8% and the inhibition of growth at 10 µg/mL [4] was 23.7%. For the same compound, the inhibition of growth at 3 µg/mL [5] was 21.9%, the growth inhibition (GI) [6] was -32.7% and the growth inhibition (GI) [7] was -28%. For the same compound, the growth inhibition (GI) [8] was 8.79%, the IC90 [9] was over 250 mg/L and the IC90 [10] was over 250 mg/L. For the same compound, the MIC (Escherichia coli) was 167 mg/L (≈ 511 µM), the MIC (Pseudomonas fluorescens) was 223 mg/L (≈ 682 µM) and the MIC (Staphylococcus aureus) was 159 mg/L (≈ 486 µM). For the same compound, the MIC (Bacillus subtilis) was 174 mg/L (≈ 532 µM), the GI50 at 48 h [12] was over 100 mg/L and the GI90 (HeLa) was over 100 mg/L. It also gave a GI50 at 48 h [13] of 42 mg/L (≈ 128 µM), a GI90 [13] of over 100 mg/L and a GI50 at 48 h [14] of 89.2 mg/L (≈ 273 µM). The GI90 (A549) was 63.3 mg/L (≈ 193 µM), the GI50 at 48 h [15] was 63.3 mg/L (≈ 193 µM) and the GI90 [15] was 63.3 mg/L (≈ 193 µM).
